Source: patent publication EP2511272B1, “Synthetic analogues of abscisic acid with anti-inflammatory and insulin release stimulation effects on human cells” (Universita' degli Studi di Genova, priority 2011, dated 2012)

System: human granulocytes
Experiment: Determination of intracellular cAMP levels (inhibition of ABA-induced cAMP increase)
Type: cell-based
Description: Human granulocytes, after being incubated overnight (ON) in DMEM/F12 supplemented with 10% of foetal bovine serum (FCS), penicillin (50 units/ml) and streptomycin (50 µg/ml) (DMEM/F12 complete), were centrifuged at 200xg for 5 min and were then resuspended in HBSS (Hanks' Balanced Salt Solution) with calcium and magnesium (15 x 10^6 cells /200 µl) and preincubated for 5 minutes at 25 °C in the presence of 10 µM of phosphodiesterase inhibitor 4-[(3-butoxy-4-methoxyphenyl)-methyl]-2-imidazolidinone (Ro-20-1724). Two hundred (200) µl of suspension were then drawn and were incubated for 1 minute with 1 µM ABA (Sigma-Aldrich) either alone, or in the presence of decreasing concentrations (from 50 µM to 0.01 nM) of test compounds obtained according to the preceding examples. The reaction was terminated by the addition of 13 µl of perchloroacetic acid (PCA) to the end concentration of 0.6 M at 4 °C.
The cell lysates were centrifuged for 5 min at 17,000 x g at 4 °C and the supernatant was adjusted at pH 7.5 with 3 M potassium carbonate (K2CO3). The reaction led to the development of gas CO2 and the formation of a white precipitate of potassium perchlorate (KClO4), which was removed by a 5-minute centrifugation at 17,000xg at 4 °C.
Intracellular concentration of cAMP was determined by means of the competitive radioimmunological test [^3H]cAMP assay system (Amersham, GE Healthcare), following manufacturer's instructions..
The experiments were carried out three times, in triplicate.
Tests were carried out on human granulocytes according to the above explained procedure, in which the production of cAMP was compared to a group of control cells in case of treatment with ABA 1 µM and with ABA 1 µM + tested compound 50 µM.

With CC(=C/C(=O)O)/C=C/C1(O)C(C)(C)CC(=O)C2OC21C (single isomer, unassigned) [Example 1, trans, 2'α,3'α-dihydro-2'α,3'α-epoxyabscisic acid] the inhibition at 50 µM (ABA 1 µM + tested compound 50 µM, read-out: inhibition (production of cAMP)) was 100%, the inhibition at 10 pM (cAMP increase induced by 1 µM ABA, compound 0.01 nM) was 0% and the inhibition at 0.0001 µM (cAMP increase induced by 1 µM ABA, compound 0.1 nM) was 25%. For the same compound, the inhibition at 0.001 µM (cAMP increase induced by 1 µM ABA, compound 1 nM) was 57%, the inhibition at 0.1 µM (cAMP increase induced by 1 µM ABA, compound 100 nM) was 100% and the inhibition at 1 µM (cAMP increase induced by 1 µM ABA, compound 1 µM) was 100%. It also gave an inhibition at 5 µM (cAMP increase induced by 1 µM ABA, compound 5 µM) of 100%, an inhibition at 10 µM (cAMP increase induced by 1 µM ABA, compound 10 µM) of 100% and an IC50 (increase in cAMP concentration induced by 1 µM ABA) of about 1 nM.
